Reference: PubChem BioAssay AID1963436 (Molecular Pharmacology Branch, DTP, NCI, 2024)

Test system: OVCAR-5 complex spheroid (HUVEC/MSC), viability % T/C
Test: Anticancer human tumor OVCAR-5 cell line growth inhibition [Asc];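 also: spheroids exposed to agents for 7 days before readout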;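 as to viability, T/C: 100% = DMSO vehicle-treated wells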
Conditions: for IC50: curve of first compound; for viability, T/C: stronger effect = lower value
Summary of the method: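 Spheroid model: tumor line + HUVEC + hMSC. Single agents and combinations; top conc. at/near clinical Cmax (10 microM if undetermined), half-log dilutions. DMSO stocks at 800-fold test concentration.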

[1] = second compound 0.01 µM, first compound 0.00316 µM
[2] = second compound 0.01 µM, first compound 0.01 µM
[3] = second compound 0.01 µM, first compound 0.0316 µM
[4] = second compound 0.01 µM, first compound 0.1 µM
[5] = second compound 0.0316 µM, first compound 0.00316 µM
[6] = second compound 0.0316 µM, first compound 0.01 µM
[7] = second compound 0.0316 µM, first compound 0.0316 µM
[8] = second compound 0.0316 µM, first compound 0.1 µM
[9] = second compound 0.1 µM, first compound 0.00316 µM
[10] = second compound 0.1 µM, first compound 0.01 µM
[11] = second compound 0.1 µM, first compound 0.0316 µM
[12] = second compound 0.1 µM, first compound 0.1 µM
[13] = second compound 0.316 µM, first compound 0.00316 µM
[14] = second compound 0.316 µM, first compound 0.01 µM
[15] = second compound 0.316 µM, first compound 0.0316 µM
[16] = second compound 0.316 µM, first compound 0.1 µM
[17] = second compound 1 µM, first compound 0.00316 µM
[18] = second compound 1 µM, first compound 0.01 µM
[19] = second compound 1 µM, first compound 0.0316 µM
[20] = second compound 1 µM, first compound 0.1 µM
[21] = second compound 0.01 µM, first compound 0.316 µM
[22] = second compound 0.01 µM, first compound 1 µM
[23] = second compound 0.0316 µM, first compound 0.316 µM
[24] = second compound 0.0316 µM, first compound 1 µM
[25] = second compound 0.1 µM, first compound 0.316 µM
[26] = second compound 0.1 µM, first compound 1 µM
[27] = second compound 0.316 µM, first compound 0.316 µM
[28] = second compound 0.316 µM, first compound 1 µM
[29] = second compound 1 µM, first compound 0.316 µM
[30] = second compound 1 µM, first compound 1 µM

## Cc1nc(N2CCC3(CC2)COC(C)C3N)c(CO)nc1Sc1ccnc(N)c1Cl (stereo not given) + CCN1C(C(=O)NC23CCC(C(=O)O)(CC2)CC3)C(c2cccc(Cl)c2F)C2(C(=O)Nc3cc(Cl)ccc32)C12CCCCC2
Second compound 0.03 µM
  IC50: > 3 µM
Second compound 0.0949 µM
  IC50: > 3 µM
Second compound 0.3 µM
  IC50: > 3 µM
Second compound 0.949 µM
  IC50: > 3 µM
Second compound 3 µM
  IC50: > 3 µM
Second compound 0.03 µM, first compound 0.00949 µM
  viability, T/C: 104%
Second compound 0.03 µM, first compound 0.03 µM
  viability, T/C: 101%
Second compound 0.03 µM, first compound 0.0949 µM
  viability, T/C: 79.8%
Second compound 0.03 µM, first compound 0.3 µM
  viability, T/C: 79.8%
Second compound 0.03 µM, first compound 0.949 µM
  viability, T/C: 71.4%
Second compound 0.03 µM, first compound 3 µM
  viability, T/C: 60.6%
Second compound 0.0949 µM, first compound 0.00949 µM
  viability, T/C: 108%
Second compound 0.0949 µM, first compound 0.03 µM
  viability, T/C: 97.1%
Second compound 0.0949 µM, first compound 0.0949 µM
  viability, T/C: 89.4%
Second compound 0.0949 µM, first compound 0.3 µM
  viability, T/C: 82%
Second compound 0.0949 µM, first compound 0.949 µM
  viability, T/C: 70.8%
Second compound 0.0949 µM, first compound 3 µM
  viability, T/C: 56%
Second compound 0.3 µM, first compound 0.00949 µM
  viability, T/C: 112%
Second compound 0.3 µM, first compound 0.03 µM
  viability, T/C: 105%
Second compound 0.3 µM, first compound 0.0949 µM
  viability, T/C: 86.1%
Second compound 0.3 µM, first compound 0.3 µM
  viability, T/C: 72.4%
Second compound 0.3 µM, first compound 0.949 µM
  viability, T/C: 64.2%
Second compound 0.3 µM, first compound 3 µM
  viability, T/C: 60.8%
Second compound 0.949 µM, first compound 0.00949 µM
  viability, T/C: 107%
Second compound 0.949 µM, first compound 0.03 µM
  viability, T/C: 105%
Second compound 0.949 µM, first compound 0.0949 µM
  viability, T/C: 96.3%
Second compound 0.949 µM, first compound 0.3 µM
  viability, T/C: 73.6%
Second compound 0.949 µM, first compound 0.949 µM
  viability, T/C: 69.5%
Second compound 0.949 µM, first compound 3 µM
  viability, T/C: 70.3%
Second compound 3 µM, first compound 0.00949 µM
  viability, T/C: 104%
Second compound 3 µM, first compound 0.03 µM
  viability, T/C: 110%
Second compound 3 µM, first compound 0.0949 µM
  viability, T/C: 99.3%
Second compound 3 µM, first compound 0.3 µM
  viability, T/C: 79%
Second compound 3 µM, first compound 0.949 µM
  viability, T/C: 68.4%
Second compound 3 µM, first compound 3 µM
  viability, T/C: 65.9%

## Cn1ncnc1[C@H]1c2n[nH]c(=O)c3cc(F)cc(c23)N[C@@H]1c1ccc(F)cc1 + CNC(C)C(=O)NC1CN(S(=O)(=O)c2cccc(S(=O)(=O)N3CCC4CCC(C(=O)NC(c5ccccc5)c5ccccc5)N4C(=O)C(NC(=O)C(C)NC)C3)c2)CCC2CCC(C(=O)NC(c3ccccc3)c3ccccc3)N2C1=O
Second compound 0.01 µM
  IC50: > 0.1 µM
Second compound 0.0316 µM
  IC50: > 0.1 µM
Second compound 0.1 µM
  IC50: > 0.1 µM
Second compound 0.316 µM
  IC50: > 0.1 µM
Second compound 1 µM
  IC50: > 0.1 µM
Second compound 0.01 µM, first compound 0.000316 µM
  viability, T/C: 92.5%
Second compound 0.01 µM, first compound 0.001 µM
  viability, T/C: 86.9%
[1]
  viability, T/C: 85.9%
[2]
  viability, T/C: 84.3%
[3]
  viability, T/C: 92.3%
[4]
  viability, T/C: 86.5%
Second compound 0.0316 µM, first compound 0.000316 µM
  viability, T/C: 81.8%
Second compound 0.0316 µM, first compound 0.001 µM
  viability, T/C: 77.6%
[5]
  viability, T/C: 84.5%
[6]
  viability, T/C: 73.2%
[7]
  viability, T/C: 73.9%
[8]
  viability, T/C: 74.6%
Second compound 0.1 µM, first compound 0.000316 µM
  viability, T/C: 78.3%
Second compound 0.1 µM, first compound 0.001 µM
  viability, T/C: 88.3%
[9]
  viability, T/C: 81.6%
[10]
  viability, T/C: 71.7%
[11]
  viability, T/C: 73.4%
[12]
  viability, T/C: 68.5%
Second compound 0.316 µM, first compound 0.000316 µM
  viability, T/C: 81.5%
Second compound 0.316 µM, first compound 0.001 µM
  viability, T/C: 85.8%
[13]
  viability, T/C: 85.1%
[14]
  viability, T/C: 71.5%
[15]
  viability, T/C: 80.7%
[16]
  viability, T/C: 74.8%
Second compound 1 µM, first compound 0.000316 µM
  viability, T/C: 88.3%
Second compound 1 µM, first compound 0.001 µM
  viability, T/C: 94.4%
[17]
  viability, T/C: 78.6%
[18]
  viability, T/C: 72.7%
[19]
  viability, T/C: 76.1%
[20]
  viability, T/C: 69.1%

## O=C(c1cc(Cc2n[nH]c(=O)c3ccccc23)ccc1F)N1CCN(C(=O)C2CC2)CC1 + CNC(C)C(=O)NC1CN(S(=O)(=O)c2cccc(S(=O)(=O)N3CCC4CCC(C(=O)NC(c5ccccc5)c5ccccc5)N4C(=O)C(NC(=O)C(C)NC)C3)c2)CCC2CCC(C(=O)NC(c3ccccc3)c3ccccc3)N2C1=O
Second compound 0.01 µM
  IC50: > 10 µM
Second compound 0.0316 µM
  IC50: > 10 µM
Second compound 0.1 µM
  IC50: > 10 µM
Second compound 0.316 µM
  IC50: > 10 µM
Second compound 1 µM
  IC50: > 10 µM
[3]
  viability, T/C: 97.3%
[4]
  viability, T/C: 95.8%
[21]
  viability, T/C: 87.1%
[22]
  viability, T/C: 96.2%
Second compound 0.01 µM, first compound 3.16 µM
  viability, T/C: 80.5%
Second compound 0.01 µM, first compound 10 µM
  viability, T/C: 70.3%
[7]
  viability, T/C: 81.4%
[8]
  viability, T/C: 88.3%
[23]
  viability, T/C: 81.7%
[24]
  viability, T/C: 74.6%
Second compound 0.0316 µM, first compound 3.16 µM
  viability, T/C: 77.9%
Second compound 0.0316 µM, first compound 10 µM
  viability, T/C: 67.9%
[11]
  viability, T/C: 84.9%
[12]
  viability, T/C: 95.6%
[25]
  viability, T/C: 77.9%
[26]
  viability, T/C: 74.8%
Second compound 0.1 µM, first compound 3.16 µM
  viability, T/C: 75.1%
Second compound 0.1 µM, first compound 10 µM
  viability, T/C: 55.5%
[15]
  viability, T/C: 77.4%
[16]
  viability, T/C: 75.5%
[27]
  viability, T/C: 80.7%
[28]
  viability, T/C: 75.5%
Second compound 0.316 µM, first compound 3.16 µM
  viability, T/C: 67.2%
Second compound 0.316 µM, first compound 10 µM
  viability, T/C: 62%
[19]
  viability, T/C: 83.5%
[20]
  viability, T/C: 76.1%
[29]
  viability, T/C: 88.9%
[30]
  viability, T/C: 73.8%
Second compound 1 µM, first compound 3.16 µM
  viability, T/C: 65.3%
Second compound 1 µM, first compound 10 µM
  viability, T/C: 55.9%

## O=C(c1ccc(F)c(F)c1Nc1ccc(I)cc1F)N1CC(O)([C@@H]2CCCCN2)C1 + CNC(C)C(=O)NC1CN(S(=O)(=O)c2cccc(S(=O)(=O)N3CCC4CCC(C(=O)NC(c5ccccc5)c5ccccc5)N4C(=O)C(NC(=O)C(C)NC)C3)c2)CCC2CCC(C(=O)NC(c3ccccc3)c3ccccc3)N2C1=O
Second compound 0.01 µM
  IC50: 0.11 µM
Second compound 0.0316 µM
  IC50: 0.108 µM
Second compound 0.1 µM
  IC50: 0.0762 µM
Second compound 0.316 µM
  IC50: 0.0492 µM
Second compound 1 µM
  IC50: 0.0726 µM
[1]
  viability, T/C: 92.2%
[2]
  viability, T/C: 80.4%
[3]
  viability, T/C: 62.6%
[4]
  viability, T/C: 51.2%
[21]
  viability, T/C: 40.9%
[22]
  viability, T/C: 31.8%
[5]
  viability, T/C: 83.6%
[6]
  viability, T/C: 78.1%
[7]
  viability, T/C: 64.5%
[8]
  viability, T/C: 51.4%
[23]
  viability, T/C: 36.7%
[24]
  viability, T/C: 25.5%
[9]
  viability, T/C: 80%
[10]
  viability, T/C: 79.1%
[11]
  viability, T/C: 62.5%
[12]
  viability, T/C: 46.5%
[25]
  viability, T/C: 34.2%
[26]
  viability, T/C: 30.3%
[13]
  viability, T/C: 77.7%
[14]
  viability, T/C: 67.3%
[15]
  viability, T/C: 54.5%
[16]
  viability, T/C: 42.8%
[27]
  viability, T/C: 32.8%
[28]
  viability, T/C: 26.8%
[17]
  viability, T/C: 79.8%
[18]
  viability, T/C: 76.9%
[19]
  viability, T/C: 59.4%
[20]
  viability, T/C: 47.7%
[29]
  viability, T/C: 29.7%
[30]
  viability, T/C: 24.1%
